Laboratory results from ChEMBL document CHEMBL1641590, “Identification of novel ASK1 inhibitors using virtual screening” (Bioorg Med Chem, 2011).

Each compound was assayed against T1, Mitogen-activated protein kinase kinase kinase 5 (Homo sapiens, UniProt Q99683) (assay: Inhibition of ASK1 assessed as phosphorylated fluorescent peptide by mobility shift assay).
T1 sequence (Q99683 whole entry): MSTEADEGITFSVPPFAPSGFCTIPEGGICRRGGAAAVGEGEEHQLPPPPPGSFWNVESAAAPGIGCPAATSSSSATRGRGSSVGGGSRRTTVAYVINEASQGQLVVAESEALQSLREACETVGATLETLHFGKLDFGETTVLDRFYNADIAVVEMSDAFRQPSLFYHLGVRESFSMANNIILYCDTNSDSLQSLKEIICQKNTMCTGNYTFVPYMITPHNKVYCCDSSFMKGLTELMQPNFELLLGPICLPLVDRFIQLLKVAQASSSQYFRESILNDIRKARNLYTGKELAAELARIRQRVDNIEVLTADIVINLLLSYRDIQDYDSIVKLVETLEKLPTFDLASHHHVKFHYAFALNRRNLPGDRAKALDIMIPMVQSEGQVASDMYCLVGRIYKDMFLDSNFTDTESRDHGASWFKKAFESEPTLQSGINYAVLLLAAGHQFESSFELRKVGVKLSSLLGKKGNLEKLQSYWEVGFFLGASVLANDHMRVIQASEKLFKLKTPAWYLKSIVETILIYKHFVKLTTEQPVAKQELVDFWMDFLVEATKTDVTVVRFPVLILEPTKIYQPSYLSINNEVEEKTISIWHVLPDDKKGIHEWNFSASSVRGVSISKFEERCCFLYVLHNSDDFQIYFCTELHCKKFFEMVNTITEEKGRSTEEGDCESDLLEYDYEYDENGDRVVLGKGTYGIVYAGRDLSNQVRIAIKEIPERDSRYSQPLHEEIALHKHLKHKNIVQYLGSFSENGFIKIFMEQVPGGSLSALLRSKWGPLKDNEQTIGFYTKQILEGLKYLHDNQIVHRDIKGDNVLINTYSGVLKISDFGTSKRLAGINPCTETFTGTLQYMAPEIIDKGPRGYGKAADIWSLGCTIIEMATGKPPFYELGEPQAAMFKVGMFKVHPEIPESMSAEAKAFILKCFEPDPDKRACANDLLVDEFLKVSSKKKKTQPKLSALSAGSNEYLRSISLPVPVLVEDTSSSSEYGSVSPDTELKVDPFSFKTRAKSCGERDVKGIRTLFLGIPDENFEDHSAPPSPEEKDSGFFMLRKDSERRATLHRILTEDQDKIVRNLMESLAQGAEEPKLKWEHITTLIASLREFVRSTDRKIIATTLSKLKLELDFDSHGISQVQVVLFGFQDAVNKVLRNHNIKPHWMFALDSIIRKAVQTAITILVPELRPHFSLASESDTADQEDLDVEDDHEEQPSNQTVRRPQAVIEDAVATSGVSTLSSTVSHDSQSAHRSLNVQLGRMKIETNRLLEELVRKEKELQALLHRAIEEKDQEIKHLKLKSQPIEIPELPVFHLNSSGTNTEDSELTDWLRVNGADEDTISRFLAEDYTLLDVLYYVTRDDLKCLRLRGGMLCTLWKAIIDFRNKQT

Structure (SMILES)	IC50 [µM]
CC(C)(C(=O)O)c1ccc(C(=O)Nc2cn3cc(-c4ccsc4)ccc3n2)cc1	0.019
COc1ccc(OC)c(Nc2nc(N)nc3[nH]cnc23)c1	18.9
c1nc(N2CCCCC2)c2nc[nH]c2n1	17
CC(C)(C)c1ccc(C(=O)Nc2cn3cc(-n4ccnc4)ccc3n2)cc1	0.014
CC(C)(C)c1ccc(C(=O)Nc2cn3c(ccc4ccccc43)n2)cc1	0.015
CSc1nc(N)nc2[nH]cnc12	13.3
CCCN(CCC)c1[nH]cnc2ncnc1-2	25.8

The compounds below were run against T2, Mitogen-activated protein kinase kinase kinase 5 (Homo sapiens) (UniProt Q99683) (assay: Inhibition of ASK1 assessed as phosphorylated fluorescent peptide at 10 uM by mobility shift assay).
T2 sequence (whole entry): T1 sequence (Q99683 whole entry)

Structure (SMILES)	inhibition [%]
COc1ccc(OC)c(Nc2nc(N)nc3[nH]cnc23)c1	> 50
c1nc(N2CCCCC2)c2nc[nH]c2n1	> 50
CS(=O)(=O)c1ccc(C(=O)Nc2nc3ccccc3[nH]2)cc1[N+](=O)[O-]	> 30
O=C(Nc1ccc(N2CCOCC2)cc1)c1n[nH]c2ccccc12	> 30
Nc1nc(SCCCCC(O)O)c2nc[nH]c2n1	> 30
O=C(Nc1nc2ccccc2[nH]1)c1ccc2ncsc2c1	> 30
CNc1nc(-c2cccnc2)cn2ccnc12	> 30
CNc1nc(N)c(C(=O)c2ccc(F)cc2)s1	> 30
Nc1nc(OCC2CCCCC2)c2nc[nH]c2n1	> 50
COc1cccc(C(=O)NN2CC(=O)C(c3nc4ccccc4c(=O)[nH]3)=C2N)c1	> 30
Nc1nc(OCc2ccccc2)c2nc[nH]c2n1	> 30
Cc1c(C)n(CC(C)C)c2ncnc(N)c12	> 30
Nc1nc(Nc2cccc3ccccc23)c2nc[nH]c2n1	> 30
CN(C)c1ncnc2nc[nH]c12	> 30
CSc1nc(N)nc2[nH]cnc12	> 50
Cc1c(C)n(C2CCCC2)c2nc[nH]c(=O)c12	> 30
CCCN(CCC)c1[nH]cnc2ncnc1-2	> 50
NC(=O)c1ccc(-n2cnc3ccccc32)cc1	> 30
Nc1nc(SCc2c(Cl)cccc2Cl)c2nc[nH]c2n1	> 30
Nc1nc(N)c2c(Cl)c(Br)ccc2n1	> 30
CCNc1nc(N)c(C(C)=O)s1	> 30
